From publication PMC13144739, “Global analysis of cancer cell responses to USP9X inhibition” (The EMBO Journal, 2026)
Where “and” joins values, the source holds several entries; their conditions need not be identical. Identical values can stand only once.

Assays:
[1] = molecular target: T1, USP9X Δβ (USP9X β-hairpin deletion) (Homo sapiens, UniProt Q93008, DEL1924-1943); test: Ub-Rho cleavage assay, USP9X Δβ variant; format: biochemical
T1 construct: His/SUMO (pOPIN-S vector) (N, cleaved yes); made in house; host or cells: E. coli BL21
Text: An expression construct for the USP9X catalytic domain (aa 1551–1970, […]: Q93008-1), was codon optimised for bacterial expression, synthesised in gBlock format (Integrated DNA Technologies) and cloned into the pOPIN-S vector (Berrow et al, [2007]), which was digested with KpnI and HindIII using In-Fusion™ HD cloning (Takara Clontech). […] For the USP9X Δβ catalytic domain a deletion construct ΔE1924-K1943 and for USP9X/USP24 chimera, a construct with USP9X Y1757-A1766 replaced with the USP24 (NCBI Reference Sequence: NP_056121) aa motif […] was used. All constructs were confirmed by Sanger sequencing (AGRF).
The reaction was stopped through the addition of 10 mM citric acid. The assay was performed in 384-well format with a total reaction volume of 16 µL. Data was collected using the ClarioSTAR plate reader (BMG Labtech) at an emission of 535 nm. […] IC50 values presented in our study are the mean of three independent biological repeats unless indicated otherwise.

USP9X catalytic domain = molecular target: T2, USP9X catalytic domain (Homo sapiens, UniProt Q93008); test: SPR binding assay; details: SPR, steady state, mean of three repeats; read-out: KD (steady state affinity)
T2 construct: His/SUMO (pOPIN-S vector) (N, cleaved yes); made in house; host or cells: E. coli BL21
T2 sequence (Q93008 1551-1970): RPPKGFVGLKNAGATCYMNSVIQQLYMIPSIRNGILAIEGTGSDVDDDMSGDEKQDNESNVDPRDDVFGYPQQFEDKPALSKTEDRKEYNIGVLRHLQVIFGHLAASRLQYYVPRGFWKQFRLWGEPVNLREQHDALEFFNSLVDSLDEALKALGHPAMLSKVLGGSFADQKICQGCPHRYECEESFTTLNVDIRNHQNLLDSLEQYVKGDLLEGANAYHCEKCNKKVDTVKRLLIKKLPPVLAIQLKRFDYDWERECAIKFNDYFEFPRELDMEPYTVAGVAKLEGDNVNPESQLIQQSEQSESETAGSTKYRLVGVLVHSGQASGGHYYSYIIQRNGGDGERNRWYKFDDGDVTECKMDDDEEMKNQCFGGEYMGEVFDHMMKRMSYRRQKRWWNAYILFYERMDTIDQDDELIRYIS
Description: Next, the sample was desalted using PD midiTrap™ G-25 (GE Healthcare) columns following the manufacturer’s instructions and was further purified by SEC, concentrated, and stored at -80 °C. Enzyme activity was tested in a ubiquitin-probe assay. SPR experiments were performed on a Biacore 8 K+ instrument (Cytiva). USP9X catalytic domain with a C-terminal AviTag™ was immobilised in 10 mM HEPES, 150 mM NaCl at pH 7.4 on a Series S Sensor Chip SA (Cytiva) by coupling. […] Running buffer was supplemented with 2% (v/v) DMSO. Multi-cycle kinetics were performed with 120 s associations and 600 s dissociations at 30 µL/min with no further regeneration. Binding constants were determined in Biacore Insight evaluation software (v5.0.18) at steady state, taking the median response over a 5-s window beginning at 10 s before the end of the association phase. Final KD values are the mean of three independent experiments.

[2] = test system: 57 human cancer cell lines; test: NCI-60 cancer cell panel; format: cell-based; details: 72 h, 3 days, in five cell lines across three cancer types, read-out: cell growth inhibition
Description: (§1) Inhibitors were tested at 10 µM. Data shown is the mean of two technical replicates and is shown relative to the no-drug control, and relative to the time zero number of cells.

lymphoma line SR = test: NCI-60 cancer cell panel, SR; format: cell-based, human; details: 10 µM, 3 days
Description: as §1

HUVECs = test: IncuCyte live-cell imaging, HUVEC; format: cell-based
Description: (§2) Cells were seeded at varying densities (1000–8000 cells per well) after initial optimisation in a 96-well tissue culture-treated plate (Thermo Fisher Scientific). Cells were incubated o/n, and the next day, inhibitors and controls diluted in cell media were added to the cells to a final volume of 200 μL per well. Cell death was measured using PI (Sigma-Aldrich). Cells were imaged with four images per well every 2 h for up to 96 h using the IncuCyte live-cell analysis system (S3, Sartorius). Cell proliferation data were analysed using Microsoft Excel by normalising confluence to control conditions. For cell killing readouts, the number of PI-positive cells was normalised to the control conditions for each timepoint.

ACHN cells = test: IncuCyte live-cell imaging cell death, ACHN; format: cell-based, human; details: 10 µM
Description: as §2

SK-MEL-2 cells = test: Colony formation assay, SK-MEL-2; format: cell-based, human; details: 10 µM, 7–12 days
Description: (§3) Cells were seeded at low density (200–4000 cells per well) after initial optimisation in a six-well tissue culture-treated plate (Falcon). Twenty-four hours post seeding, media was replaced, and the inhibitor was added. Cells were left to grow into colonies between 7 and 12 days, depending on the cell line. For analysis, the media was removed, and the cells were fixed with 10% (w/v) formalin for 10 min. Colonies were stained with crystal violet (Sigma-Aldrich, 0.5% [w/v] in 20% [v/v] MeOH) for 10 min and washed thrice with distilled H2O. Plates were imaged using the ChemiDoc imaging system (Bio-Rad) and analysed using the ImageJ ColonyArea plugin as described previously (Guzmán et al, [2014]).

UO-31 cells = test: Colony formation assay, UO-31; format: cell-based, human; details: 10 µM, 7–12 days
Description: as §3

T1 sequence (Q93008 with tags, fused parts or gaps DEL1924-1943): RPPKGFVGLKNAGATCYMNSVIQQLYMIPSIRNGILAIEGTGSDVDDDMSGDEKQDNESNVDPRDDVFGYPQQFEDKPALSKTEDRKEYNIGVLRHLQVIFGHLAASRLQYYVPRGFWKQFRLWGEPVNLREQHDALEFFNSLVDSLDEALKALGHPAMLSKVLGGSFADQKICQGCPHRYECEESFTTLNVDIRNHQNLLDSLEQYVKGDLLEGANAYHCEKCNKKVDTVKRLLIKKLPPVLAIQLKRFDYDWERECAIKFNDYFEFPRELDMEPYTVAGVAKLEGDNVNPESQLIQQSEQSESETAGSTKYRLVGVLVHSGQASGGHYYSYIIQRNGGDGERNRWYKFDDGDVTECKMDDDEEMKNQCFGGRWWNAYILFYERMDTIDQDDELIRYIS

Cc1[nH]c2ccc(C(=O)N3CCN(S(=O)(=O)c4ccc5c(c4)OCCO5)CC3)cc2c1C [WEHI-092]
IC50 [1]: 0.248 µM
Kd (USP9X catalytic domain): 1 µM and 1.05 µM
inhibition at 10 µM [2]: > 50%
cell killing, SR (lymphoma line SR): cell death
toxicity to HUVECs (HUVECs): non-lethal and non-toxic
response of ACHN cells (cell death) (ACHN cells): limited response
clonogenic potential, SK-MEL-2 (SK-MEL-2 cells): sensitive
clonogenic potential, UO-31 (UO-31 cells): sensitive
